These results are taken from patent publication US20200163882A1, “Solid Pharmaceutical Compositions Of Androgen Receptor Antagonists” (Lek Pharmaceuticals d.d., priority 2014, published 2020).

The conditions of data set [1]: cited from earlier work; for Solubility in water: water between pH 1 and 11.
For data set [2] the following is noted: first clinical trials, similar daily doses; cited from earlier work.
The conditions of data set [3]: physiologic pH range; cited from earlier work.
Data set [4] is described as follows: Solubility of Enzalutamide in surfactants. It is filed as physicochemical. On the procedure:
In the first reference test formulation, 12 mg of Enzalutamide was completely dissolved in 0.27 ml of Labrasol. In second reference test formulations 12 mg of Enzalutamide is completely dissolved in 0.27 ml of Tween 80. In third reference test formulation, 12 mg of Enzalutamide is completely dissolved in 0.27 ml of Tween 80 and 0.15 mg of HPMC has been added. It should be noted that solubility of Enzalutamide is about the same in Tween and in Labrasol ([…] of Enzalutamide per 1 ml of either Tween 80 or Labrasol). The three test formulations were dissolved in 15 ml of pH 6.8 phosphate buffer and Enzalutamide concentration was measured at time points from 10 to 360 minutes.

In the case of `CNC(=O)c1ccc(N2C(=S)N(c3cnc(C#N)c(C(F)(F)F)c3)C(=O)C23CCC3)cc1F` [ARN-509, 4-[7-[6-Cyano-5-(trifluoromethyl)pyridin-3-yl]-8-oxo-6-thioxo-5,7-diazaspiro[3.4]octan-5-yl]-2-fluoro-N-methylbenzamide], in data set [1], the “Solubility in N-methyl-2-pyrrolidone (NMP)” value is reported as “soluble”, the “Solubility in absolute ethanol” value is listed as “sparingly soluble”, the Solubility in acetone result is “soluble” and the Solubility in water entry is recorded as “practically insoluble”. The “Effectiveness versus Enzalutamide” value in data set [2] is given as “more effective than Enzalutamide”. Besides, the Ionisation state entry in data set [3] is on record as “remain unionized”.
As for `CNC(=O)c1ccc(N2C(=S)N(c3ccc(C#N)c(C(F)(F)F)c3)C(=O)C2(C)C)cc1F` [Enzalutamide, 4-{3-[4-Cyano-3-(trifluoromethyl)phenyl]-5,5-dimethyl-4-oxo-2-thioxoimidazolidin-1-yl}-2-fluoro-N-methylbenzamide], in data set [1], the “Solubility in N-methyl-2-pyrrolidone (NMP)” value was “soluble”, the “Solubility in absolute ethanol” value was “sparingly soluble”, the Solubility in acetone result is on record as “soluble” and the Solubility in water entry is reported as “practically insoluble”. The Ionisation state entry in data set [3] is recorded as “remain unionized”. Also, in data set [4] (Labrasol), the “Solubility of Enzalutamide in Labrasol” value was “about 36 mg per 1 ml”. Further, the “Solubility of Enzalutamide in Tween 80” value in data set [4] (Tween 80) was “about 36 mg per 1 ml”.
